# Tested on: T1, Coptodon zillii liver rhodanese
# T1 construct: gene tst
# Conditions: co-substrate KCN; standard assay borate pH 9.4, 37 °C; 5-50 mM range
smiles,measurement,value
O=S(O)(O)=S [sodium thiosulphate],Km,20 mM

# From article PMC12473897 (Toxics, 2025)
